Laboratory results published in ChEMBL document CHEMBL5725341, “Tricyclic compounds for use as kinase inhibitors” (2017).

How the values were obtained:
[1] = biological target: Serine/threonine-protein kinase pim-1 (Homo sapiens, UniProt P11309); experiment: PIM-1 Biochemical Assay: The biochemical assay to measure PIM-1 activity relies on the ADP Hunter assay kit (DiscoveRx Corp., Cat. #90-0077), that determines the amount of ADP as direct product of the kinase enzyme activity.
[2] = biological target: Serine/threonine-protein kinase pim-2 (Homo sapiens, UniProt Q9P1W9); experiment: PIM-2 Biochemical Assay: The biochemical assay to measure PIM-2 activity relies on the ADP Hunter assay kit (DiscoveRx Corp., Cat. #90-0077), that determines the amount of ADP as direct product of the kinase enzyme activity.
Chain of Serine/threonine-protein kinase pim-2 (Q9P1W9 whole entry): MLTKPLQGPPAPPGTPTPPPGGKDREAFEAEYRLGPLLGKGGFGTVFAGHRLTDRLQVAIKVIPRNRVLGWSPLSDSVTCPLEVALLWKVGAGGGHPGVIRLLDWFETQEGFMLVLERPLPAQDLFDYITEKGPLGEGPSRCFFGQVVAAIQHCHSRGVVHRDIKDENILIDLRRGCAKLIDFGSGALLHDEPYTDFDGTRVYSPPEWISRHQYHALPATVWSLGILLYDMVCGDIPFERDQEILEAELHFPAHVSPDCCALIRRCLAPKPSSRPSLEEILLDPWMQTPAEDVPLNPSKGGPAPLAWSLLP

[3] = biological target: Serine/threonine-protein kinase pim-3 (Homo sapiens, UniProt Q86V86); experiment: PIM-3 Biochemical Assay: The biochemical assay to measure PIM-3 activity relies on the ADP Hunter assay kit (DiscoveRx Corp., Cat. #90-0077), that determines the amount of ADP as direct product of the kinase enzyme activity.

Chain of Serine/threonine-protein kinase pim-1 (P11309 whole entry): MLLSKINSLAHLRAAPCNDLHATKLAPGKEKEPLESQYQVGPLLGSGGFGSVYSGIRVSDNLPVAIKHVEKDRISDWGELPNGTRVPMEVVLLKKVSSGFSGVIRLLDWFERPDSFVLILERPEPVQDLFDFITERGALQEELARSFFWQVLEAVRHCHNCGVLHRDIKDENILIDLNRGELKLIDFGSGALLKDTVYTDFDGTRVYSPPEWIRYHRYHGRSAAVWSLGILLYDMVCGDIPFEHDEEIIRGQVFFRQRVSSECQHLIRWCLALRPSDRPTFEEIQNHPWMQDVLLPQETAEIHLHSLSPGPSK

Compound	IC50 [1] [nM]	IC50 [2] [nM]	IC50 [3] [nM]
CN1CCOc2c(NCCN3CCNCC3)nn3c(-c4cccc(OC(F)(F)F)c4)nnc3c21	–	> 1000	–
CN1CCOc2c(N3CCC(N(C)C)CC3)nn3c(-c4cccc(OC(F)(F)F)c4)nnc3c21	> 1000	> 1000	–
CN1CCN(CCNc2nn3c(-c4cccc(OC(F)(F)F)c4)nnc3c3c2OCCN3C)CC1	> 1000	> 1000	–
CN1CCOc2c(NCCN3CCOCC3)nn3c(-c4cccc(OC(F)(F)F)c4)nnc3c21	> 1000	> 1000	–

Other lines, results leading:

IC50 [1] [nM]	IC50 [2] [nM]	IC50 [3] [nM]	Compound
< 100	–	–	CN1CCOc2c1c(NCCN1CCOCC1)nn1c(-c3cccc(OC(F)(F)F)c3)nnc21
< 100	> 1000	–	CN1CCOc2c1c(NCC13CCN(CC1)C3)nn1c(-c3cccc(OC(F)(F)F)c3)nnc21
< 100	–	–	CN1CCOc2c1c(NCCc1cccnc1)nn1c(-c3cccc(OC(F)(F)F)c3)nnc21
< 100	–	< 100	CN1CCOc2c1c(NCC1CC3(CCNCC3)C1)nn1c(-c3cccc(OC(F)(F)F)c3)nnc21
